Test results from US20160272691A1, “COMPOSITIONS AND METHODS FOR TREATING CONDITIONS ASSOCIATED WITH y-[sequence]” (NDSU RESEARCH FOUNDATION, priority 2013, published 2016).
No end group written: not given here.

What was measured:
MCF7 cells = assay: Autophagy assay (GFP-LC3 puncta) in MCF7 cells without Bcl-XL or M11; format: cell-based, human
Procedure: (§1) Quantification of the fluorescent autophagosomes in MCF7 cells co-transfected with GFP-LC3 (1.6 μg), Beclin 1 (1.2 μg), and either Bcl-XL (1.2 μg) or M11(1.2 μg) expression plasmids (4 μg plasmids total) was done using an inverted AxioObserver (Zeiss). Cells were cultured in DMEM with 10% fetal calf serum (growth medium) in 8-well slides (Millipore) and transfected at 80% confluence with Lipofectamine (Invitrogen). After transfection, cells were either starved overnight in Earle's balanced salt solution (EBSS, starvation medium), or grown in nutrient-rich media with the addition of 2×EAA (essential amino acids) and 2×NEAA (nonessential amino acids) (nutrient rich medium) in the absence or presence of 1 mM peptides if indicated. The number of GFP-LC3 puncta per GFP-LC3 positive cell was assessed by counting a minimum of 50 cells via Image ProPlus for duplicate samples per condition in three independent experiments. The significance of alterations in autophagy levels were determined by a two-tailed, heteroscedastic student's t-test, wherein p≦0.05 is considered significant.
(§2) Lastly, whether the DM peptide would specifically prevent M11-mediated down-regulation, but not Bcl-XL-mediated down-regulation of Beclin 1-dependent autophagy in cells was investigated. […]

Bcl-XL = biological target: T1, Bcl-XL (Homo sapiens, UniProt Q07817); assay: Autophagy assay (GFP-LC3 puncta), Bcl-XL-mediated down-regulation of autophagy in MCF7 cells; format: cell-based; conditions: cells that transiently express Bcl-XL in addition to Beclin 1; p=0.92294 treated versus untreated
T1 construct: expressed in transfected cells; host or cells: MCF7 human breast carcinoma cells
T1 sequence (Q07817 whole entry): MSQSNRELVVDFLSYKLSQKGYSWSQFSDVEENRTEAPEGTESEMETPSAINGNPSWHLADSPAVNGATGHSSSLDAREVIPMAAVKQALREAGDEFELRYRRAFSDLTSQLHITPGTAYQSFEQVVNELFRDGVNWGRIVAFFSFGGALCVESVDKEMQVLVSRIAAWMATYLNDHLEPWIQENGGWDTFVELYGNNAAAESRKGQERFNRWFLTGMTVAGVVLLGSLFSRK
Procedure: as §1, §2

M11 = biological target: T2, M11 (Murid herpesvirus 4, UniProt P89884); assay: Autophagy assay (GFP-LC3 puncta), M11-mediated down-regulation of autophagy in MCF7 cells; format: cell-based, murine γHV68; conditions: cells that transiently express M11 in addition to Beclin 1; p=0.0010 treated versus untreated
T2 construct: expressed in transfected cells; host or cells: MCF7 human breast carcinoma cells
T2 sequence (P89884 whole entry, looked up): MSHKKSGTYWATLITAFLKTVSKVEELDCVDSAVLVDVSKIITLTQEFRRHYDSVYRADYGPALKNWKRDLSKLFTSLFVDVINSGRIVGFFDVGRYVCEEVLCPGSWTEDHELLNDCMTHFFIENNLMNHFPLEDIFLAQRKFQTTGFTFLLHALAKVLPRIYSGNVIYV
Procedure: as §1, §2

human Bcl-XL = biological target: T3, human Bcl-XL (Homo sapiens, UniProt Q07817, N52D/N66D); assay: Isothermal titration calorimetry, binding of Beclin 1 BH3D-derived peptides to Bcl-XL; conditions: ITC
T3 construct: The His6-tagged Bcl-XL (residues 1-208, N52D, N66D) were expressed in E. coli; His6 (C); made in house; host or cells: E. coli BL21(DE3)pLysS
T3 sequence (Q07817 1-208 N52D/N66D): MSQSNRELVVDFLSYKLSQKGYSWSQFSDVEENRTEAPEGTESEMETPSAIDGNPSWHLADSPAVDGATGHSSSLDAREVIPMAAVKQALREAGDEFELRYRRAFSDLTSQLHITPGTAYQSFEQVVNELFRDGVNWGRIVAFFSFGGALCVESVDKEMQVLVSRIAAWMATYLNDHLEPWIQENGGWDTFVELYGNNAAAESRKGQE
Text: (§3) Various Bcl-2 homologs lacking the C-terminal transmembrane helix were cloned and expressed to enable purification of soluble constructs identical to those used for previous structural studies. γHV68 M11 residues 1-136 was expressed and purified. The double mutant variant of Bcl-XL (N52D, N66D) was created by two rounds of site-directed mutagenesis using the QuikChange II Site-Directed Mutagenesis Kit (Agilent Technologies), then cloned, along with a C-terminal His6-tag for purification, into the NdeI and NotI restriction sites of pET 29b. The His6-tagged Bcl-XL (residues 1-208, N52D, N66D) were expressed in E. coli strain BL21(DE3)pLysS, and soluble protein in the cell lysate was purified to homogeneity by Immobilized Metal Affinity Chromatography using two 5 mL His-Select columns (GE Healthcare) linked in tandem, followed by Ion-Exchange Chromatography using a Mono Q HR 10/10 column (GE Healthcare) and Size-Exclusion Chromatography using a 16/60 preparative Superdex 75 column (GE Healthcare).
(§4) Various Beclin 1 BH3D-derived peptides, were chemically synthesized, and HPLC purified to >95% purity, with peptide purity confirmed by electrospray mass spectrometry (EZBioLabs/RSSynthesis/Protein Chemistry Technology Core at the University of Texas Southwestern Medical Center, Dallas).
(§5) Isothermal titration calorimetry was performed using a Nano ITC Low Volume (TA Instruments). For all ITC experiments, samples were loaded into separate dialysis cassettes, and dialyzed into ITC buffer. The ITC buffer for all experiments involving γHV68 M11 was 50 mM HEPES, pH 7.5, 250 mM NaCl and 2 mM β-mercaptoethanol and for human Bcl-XL was 25 mM HEPES, pH 7.5, 100 mM NaCl and 2 mM β-mercaptoethanol. ITC was performed at 25° C. with 25 injections of 2 μL each. Data were analyzed using NanoAnalyze Software (TA Instruments), with an independent model.

γHV68 M11 = biological target: T4, γHV68 M11 (Murid herpesvirus 4, UniProt P89884); assay: biochemical; format: binding, murine γHV68; conditions: for ΔG, M11 / ΔH, M11 / ΔS, M11: ITC, 25° C., Table 1
T4 construct: γHV68 M11 residues 1-136 was expressed and purified; made in house
Text: as §3, §4, §5

| Substance | levels of autophagy (MCF7 cells; MCF7 cells, nutrient-rich or starvation conditions, peptide treatment) | autophagy levels relative to untreated cells (MCF7 cells; cells that express Beclin 1, but not Bcl-XL or M11, p=0.03383 treated versus untreated) | effect on autophagy compared to untreated cells (Bcl-XL) | autophagy levels compared to untreated cells (M11) | ΔG, Bcl-XL (human Bcl-XL; 25° C., Table 1) [kcal/mol] | ΔH, Bcl-XL (human Bcl-XL; 25° C., Table 1) [kcal/mol] | ΔS, Bcl-XL (human Bcl-XL; 25° C., Table 1) [J/K · mol] | Kd (human Bcl-XL; 25° C., Table 1, cell "No" wraps to "Binding" in the next grid row (= No Binding)) [nM] | Kd (γHV68 M11) [nM] | ΔG, M11 (γHV68 M11) [kcal/mol] | ΔH, M11 (γHV68 M11) [kcal/mol] | ΔS, M11 (γHV68 M11) [J/K · mol] | TΔSapp for binding to M11, fold lower than for binding to Bcl-XL (γHV68 M11; M11 versus Bcl-XL) [fold] | ΔHapp for binding to M11, fold higher than for binding to Bcl-XL (γHV68 M11; M11 versus Bcl-XL) [fold] | binding to Bcl-XL (in words) (human Bcl-XL) | fold better binding to M11 compared to the G120E peptide (γHV68 M11; relative to G120E peptide) [fold] | fold weaker binding to M11 compared to WT (γHV68 M11; relative to WT BH3D) [fold] |
| --- | --- | --- | --- | --- | --- | --- | --- | --- | --- | --- | --- | --- | --- | --- | --- | --- | --- |
| TAT-DM peptide: HIV-1 TAT protein transduction domain attached via a diglycine linker to the N-terminus of the DM peptide (YGRKKRRQRRRGGGSGTMENLSRRLKVTEALFDIMSGQT) | did not increase levels of autophagy | only a slight elevation in autophagy levels | insignificant effect | markedly increases autophagy levels | – | – | – | – | – | – | – | – | – | – | – | – | – |
| GSGTMENLSRRLKVTGDLFDIMSGQT [WT, reference compound] | – | – | – | – | -7.787 ± 0.055 | -10.41 ± 0.344 | −36.89 ± 4.53 | 1950 ± 190 | 1380 ± 410 | -8.009 ± 0.17 | -16.96 ± 1.53 | −125.72 ± 22.53 | ~4 | ~2 | – | – | – |
| GSGTMENLSRRLKVTEALFDIMSGQT [G120E + D121A] | – | – | – | – | – | – | – | – | 6430 ± 150 | -7.079 ± 0.014 | -14.9 ± 0.65 | −109.81 ± 9.28 | – | – | does not bind | ~5.7 | ~4.7 |
